Common to all, as to format: cell-based
In assay [1] the test system is Aspergillus fumigatus MYA3626. The assay is described as follows: In vitro antifungal assay (Example IX), microdilution broth, MEC. To be noted: minimum effective concentration (shortening of hyphae), 35° C., 40-48 h, RPMI1640. In short, it runs like this: (§1)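 Read-out is the minimum effective concentration: lowest compound level causing shorter hyphae than in DMSO controls, echinocandin-style. Broth microdilution used conidia or spores harvested from agar plates, cleared of mycelium and clumps, at a final 1-2×10^4 spores/mL in RPMI1640.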

The subject of assay [2] is Rhizomucor pusillus 46342. Described as above. To be noted: minimum effective concentration (shortening of hyphae), 35° C., 40-48 h, RPMI1640. Put shortly: as §1
For a further assay, the system named is Cryptococcus gattii. The assay is described as follows: In vitro antifungal assay (Example IX), microdilution broth, MIC. The note with it: minimum inhibitory concentration (≥50% inhibition), 35° C., 72 h (Cryptococcus), RPMI1640. In short, it runs like this:
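MIC was determined from OD600 after 72 h at 35 °C for Cryptococcus, in RPMI1640 inoculated at 2.5×10^3 cells/mL. Compounds were tested as a 2-fold series from 2 to 0.0019 μg/mL final, added from DMSO intermediates at a 100-fold dilution.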
Background: Dilution methods test growth across graded concentrations, often in twofold steps.

The next assay relates to Candida albicans 90028. The description is as above. To be noted: minimum inhibitory concentration (≥50% inhibition), 35° C., 40-48 h, RPMI1640. Put shortly:
(§2)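 Yeast inocula (2.5×10^3 cells/mL, RPMI1640) were exposed to twofold compound series reaching 2-0.0019 μg/mL final, per CLSI yeast methodology. Incubation at 35° C. ran 40-48 h for Candida albicans 90028 and 72 h for Cryptococcus neoformans H99. MIC endpoints were confirmed by absorbance at 600 nm.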

For assay [3], the system named is Cryptococcus neoformans H99. Described as above. The note with it: minimum inhibitory concentration (≥50% inhibition), 35° C., 72 h, RPMI1640. In short, it runs like this:
as §2

Each structure is given as a SMILES string. Values after ≈ are worked out from the molar mass of the structure shown. Some results are limits rather than exact numbers.

As a reminder, the minimal effective concentration is the lowest level tested that produced the effect sought. A high value points to a need for much substance. What is called MIC is the lowest concentration found to suppress growth. Regarding `Nc1ncccc1-c1cc(Cc2ccc(CNc3cc(F)ccc3F)cc2)no1` [compound 196, 3-(3-(4-(((2,5-difluorophenyl)amino)methyl)benzyl)isoxazol-5-yl)pyridin-2-amine], the minimal effective concentration in assay [1] and in assay [2] was 0.1 to 1 µg/mL throughout. In addition, the results for the minimal inhibitory concentration (MIC) (against Cryptococcus gattii; in the assay with Candida albicans 90028; in assay [3]) were 0.1 to 1 µg/mL (≈ 0.255 to 2.55 µM), 0.01 to 0.1 µg/mL (≈ 0.0255 to 0.255 µM) and 0.01 to 0.1 µg/mL (≈ 0.0255 to 0.255 µM), respectively.

For the compound `COc1c(F)cc(F)cc1NCc1ccc(Cc2cc(-c3cccnc3N)on2)cc1` [compound 198, 3-(3-(4-(((3,5-difluoro-2-methoxyphenyl)amino)methyl)benzyl)isoxazol-5-yl)pyridin-2-amine], the minimal effective concentration in assay [1] was greater than 1 µg/mL; in assay [2] it was 0.1 to 1 µg/mL. Besides, the MIC in the assay with Cryptococcus gattii is greater than 1 µg/mL; against Candida albicans 90028 it was 0.1 to 1 µg/mL (≈ 0.237 to 2.37 µM); in assay [3], 0.1 to 1 µg/mL (≈ 0.237 to 2.37 µM).

Take `Nc1ncccc1-c1cc(Cc2ccc(Cn3cncn3)cc2)no1` [compound 199, 3-(3-(4-((1H-1,2,4-triazol-1-yl)methyl)benzyl)isoxazol-5-yl)pyridin-2-amine]: the minimal effective concentration in assay [1] and in assay [2] was greater than 1 µg/mL each time. The MIC (against Cryptococcus gattii; in the assay on Candida albicans 90028; in assay [3]) was greater than 1 µg/mL throughout.

For `Nc1ncccc1-c1cc(Cc2ccc(Cn3cnnc3)cc2)no1` [compound 200, 3-(3-(4-((4H-1,2,4-triazol-4-yl)methyl)benzyl)isoxazol-5-yl)pyridin-2-amine], the minimal effective concentration in assay [1] and in assay [2] was greater than 1 µg/mL each time. The minimum inhibitory concentration (MIC) (in the assay on Cryptococcus gattii; in the assay on Candida albicans 90028; in assay [3]) was greater than 1 µg/mL in each case.

As to `COc1cc(F)cc(NCc2ccc(Cc3cc(-c4cccnc4N)on3)cc2)c1` [compound 201, 3-(3-(4-(((3-fluoro-5-methoxyphenyl)amino)methyl)benzyl)isoxazol-5-yl)pyridin-2-amine], the values for the minimal effective concentration in assay [1] and in assay [2] were 0.1 to 1 µg/mL and greater than 1 µg/mL, respectively. The figures for the MIC (with Cryptococcus gattii; in the assay with Candida albicans 90028; in assay [3]) were greater than 1 µg/mL, 0.1 to 1 µg/mL (≈ 0.247 to 2.47 µM) and 0.1 to 1 µg/mL (≈ 0.247 to 2.47 µM), respectively.

On to `Nc1ncccc1-c1cc(Cc2ccc(OCCn3cncn3)nc2)no1` [compound 202, 3-(3-((6-(2-(1H-1,2,4-triazol-1-yl)ethoxy)pyridin-3-yl)methyl)isoxazol-5-yl)pyridin-2-amine], for which the minimal effective concentration in assay [1] and in assay [2] was greater than 1 µg/mL each time. The minimal inhibitory concentration (MIC) (against Cryptococcus gattii; in the assay with Candida albicans 90028; in assay [3]) was greater than 1 µg/mL in each case.

Turning to `Nc1ncccc1-c1cc(Cc2ccc(-c3ccccn3)cc2)no1` [compound 203, 3-(3-(4-(pyridin-2-yl)benzyl)isoxazol-5-yl)pyridin-2-amine], the minimal effective concentration in assay [1] and in assay [2] was greater than 1 µg/mL each time. Moreover, the figures for the minimum inhibitory concentration (MIC) (against Cryptococcus gattii; in the assay on Candida albicans 90028; in assay [3]) were 0.1 to 1 µg/mL (≈ 0.305 to 3.05 µM), greater than 1 µg/mL and 0.1 to 1 µg/mL (≈ 0.305 to 3.05 µM), respectively.

For the compound `Nc1ncccc1-c1cc(Cc2ccc(-c3ccncc3)cc2)no1` [compound 204, 3-(3-(4-(pyridin-4-yl)benzyl)isoxazol-5-yl)pyridin-2-amine], the minimal effective concentration in assay [1] and in assay [2] was greater than 1 µg/mL each time. The MIC (against Cryptococcus gattii; with Candida albicans 90028; in assay [3]) was greater than 1 µg/mL each time.

In the case of `Nc1ncccc1-c1cc(Cc2ccc(-c3ccc(F)cc3)nc2)no1` [compound 205, 3-(3-((6-(4-fluorophenyl)pyridin-3-yl)methyl)isoxazol-5-yl)pyridin-2-amine], the minimal effective concentration in assay [1] was greater than 1 µg/mL; in assay [2], 0.1 to 1 µg/mL. In addition, the MIC is greater than 1 µg/mL with Cryptococcus gattii, 0.1 to 1 µg/mL (≈ 0.289 to 2.89 µM) with Candida albicans 90028 and 0.1 to 1 µg/mL (≈ 0.289 to 2.89 µM) in assay [3].

Turning to `Nc1ncccc1-c1cc(Cc2ccc(OCc3ccn4ccnc4c3)nc2)no1` [compound 206, 3-(3-((6-(imidazo[1,2-a]pyridine-7-ylmethoxy)pyridin-3-yl)methyl)isoxazol-5-yl)pyridin-2-amine], the minimal effective concentration in assay [1] and in assay [2] was greater than 1 µg/mL each time. Also, the minimum inhibitory concentration (MIC) (in the assay on Cryptococcus gattii; in the assay with Candida albicans 90028; in assay [3]) was greater than 1 µg/mL each time.

Regarding `COc1cc(COc2ccc(Cc3cc(-c4cccnc4N)on3)cn2)c(F)cn1` [compound 207, 3-(3-((6-((5-fluoro-2-methoxypyridin-4-yl)methoxy)pyridin-3-yl)methyl)isoxazol-5-yl)pyridin-2-amine], the minimal effective concentration is 0.01 to 0.1 µg/mL in assay [1] and greater than 1 µg/mL in assay [2]. Besides, the MIC was 0.1 to 1 µg/mL (≈ 0.245 to 2.45 µM) against Cryptococcus gattii, 0.1 to 1 µg/mL (≈ 0.245 to 2.45 µM) against Candida albicans 90028 and 0.01 to 0.1 µg/mL (≈ 0.0245 to 0.245 µM) in assay [3].

As for `Nc1ncccc1-c1cc(Cc2ccc(Cc3cccc(F)c3)cc2)no1` [compound 208, 3-(3-(4-(3-fluorobenzyl)benzyl)isoxazol-5-yl)pyridin-2-amine], the results for the minimal effective concentration in assay [1] and in assay [2] were 0.01 to 0.1 µg/mL and 0.1 to 1 µg/mL, respectively. In addition, the MIC (against Cryptococcus gattii; against Candida albicans 90028; in assay [3]) was 0.01 to 0.1 µg/mL (≈ 0.0278 to 0.278 µM) in each case.

`CC(C)(O)c1cccc(Cc2ccc(Cc3cc(-c4cccnc4N)on3)cc2)c1` [compound 209, 2-(3-(4-((5-(2-aminopyridin-3-yl)isoxazol-3-yl)methyl)benzyl)phenyl)propan-2-ol]: the minimal effective concentration in assay [1] and in assay [2] was greater than 1 µg/mL in each case. The MIC (against Cryptococcus gattii; in the assay with Candida albicans 90028; in assay [3]) was greater than 1 µg/mL each time.

For the compound `Nc1ncccc1-c1cc(Cc2ccc(Cc3cc(F)cc(F)c3)cc2)no1` [compound 212, 3-(3-(4-(3,5-difluorobenzyl)benzyl)isoxazol-5-yl)pyridin-2-amine], the minimal effective concentration in assay [1] and in assay [2] was 0.1 to 1 µg/mL in each case. In addition, the minimum inhibitory concentration (MIC) is 0.01 to 0.1 µg/mL (≈ 0.0265 to 0.265 µM) against Cryptococcus gattii, 0.1 to 1 µg/mL (≈ 0.265 to 2.65 µM) against Candida albicans 90028 and 0.01 to 0.1 µg/mL (≈ 0.0265 to 0.265 µM) in assay [3].

As for `Nc1ncccc1-c1cc(Cc2ccc(OCCCc3ccccc3)nc2)no1` [compound 213, 3-(3-((6-(3-phenylpropoxy)pyridin-3-yl)methyl)isoxazol-5-yl)pyridin-2-amine], the minimal effective concentration is 0.1 to 1 µg/mL in assay [1] and greater than 1 µg/mL in assay [2]. Moreover, the MIC (with Cryptococcus gattii; with Candida albicans 90028; in assay [3]) was 0.1 to 1 µg/mL (≈ 0.259 to 2.59 µM) each time.

In the case of `COc1cc(F)cc(Cc2ccc(Cc3cc(-c4cccnc4N)on3)cc2)c1` [compound 216, 3-(3-(4-(3-fluoro-5-methoxybenzyl)benzyl)isoxazol-5-yl)pyridin-2-amine], the minimal effective concentration in assay [1] is 0.1 to 1 µg/mL; in assay [2], greater than 1 µg/mL. Moreover, the MIC (with Cryptococcus gattii; in the assay with Candida albicans 90028; in assay [3]) was 0.1 to 1 µg/mL (≈ 0.257 to 2.57 µM) each time.

In the case of `Nc1ncccc1-c1cc(Cc2ccc(OCc3ccncc3Cl)nc2)no1` [compound 218, 3-(3-((6-((3-chloropyridin-4-yl)methoxy)pyridin-3-yl)methyl)isoxazol-5-yl)pyridin-2-amine], the minimal effective concentration in assay [1] is 0.1 to 1 µg/mL; in assay [2], greater than 1 µg/mL. The MIC in the assay with Cryptococcus gattii was greater than 1 µg/mL; in the assay on Candida albicans 90028, 0.1 to 1 µg/mL (≈ 0.254 to 2.54 µM); in assay [3], greater than 1 µg/mL.

Values taken from patent publication US11512079B2, “Heterocycle substituted pyridine derivative antifungal agents” (Amplyx Pharmaceuticals, Inc., priority 2017, dated 2022).
